In patent publication US20130123355A1, “Fatty acids and metal ions compositions and uses thereof” (priority 2011, published 2013):

What was measured:
[1] = Li levels in cerebrospinal fluid of rats fed Li compositions; type: in vivo, Sprague-Dawley rats; settings: oral gavage, about 20 mg elemental Li per Kg per day for 3 weeks, compared with lithium carbonate
Description: Sprague-Dawley rats are fed various […] compositions by oral gavage so as to provide about 20 mg of elemental Li per Kg per day for 3 weeks. The lithium compositions include Li-DHA, Li-DHA-LysoPC and Li-EPA. Control rats were administered equivalent molar amount of Lithium carbonate. Cerebrospinal fluid is collected at the end of the treatment, and lithium is measured by atomic absorption spectroscopy.

[2] = tested on: Sprague-Dawley rats; test: Forced Swim Test; type: in vivo; settings: diet, about 15.5 mg/Kg/day elemental lithium, compared with the fatty acid alone or lithium carbonate
Source text: Sprague-Dawley rats are fed diet supplemented with Mg-DHA, Mg Citrate, or DHA. […] Various established parameters of antidepressant activity including reduced immobility time, increased swimming, and increased climbing behavior are quantitated to assess the antidepressant activity.
Sprague-Dawley rats are fed diet supplemented with Mg-DHA-LysoPC, Mg Citrate, or DHA-lysoPC. […] Various established parameters of antidepressant activity including reduced immobility time, increased swimming, and increased climbing behavior are quantitated to assess the antidepressant activity.
Sprague-Dawley rats are fed diet supplemented with Mg-EPA, Mg Citrate, or EPA. […] Various established parameters of antidepressant activity including reduced immobility time, increased swimming, and increased climbing behavior are quantitated to assess the antidepressant activity.
Sprague-Dawley rats are fed diet supplemented with Zn-DHA, Zinc gluconate, or DHA. On Zn-DHA or Zinc gluconate supplemented diet, rats consume about 1 mg/kg body weight/day of elemental zinc, on a feeding schedule so as to maintain 85% of its free-feeding weight. […] Various established parameters of antidepressant activity including reduced immobility time, increased swimming, and increased climbing behavior are quantitated to assess the antidepressant activity.
Sprague-Dawley rats are fed diet supplemented with Zn-DHA-lysoPC, zinc gluconate, or DHA. On Zn-DHA-lysoPC or zinc gluconate supplemented diet, rats consume about 1 mg/kg body weight/day of elemental zinc, on a feeding schedule so as to maintain 85% of its free-feeding weight. […] Various established parameters of antidepressant activity including reduced immobility time, increased swimming, and increased climbing behavior are quantitated to assess the antidepressant activity.
Sprague-Dawley rats are fed diet supplemented with Zn-EPA, zinc gluconate, or EPA. On Zn-EPA or zinc gluconate supplemented diet, rats consume about 1 mg/kg body weight/day of elemental zinc, on a feeding schedule so as to maintain 85% of its free-feeding weight. […] Various established parameters of antidepressant activity including reduced immobility time, increased swimming, and increased climbing behavior are quantitated to assess the antidepressant activity.
Sprague-Dawley rats are fed diet supplemented with Li-DHA, lithium carbonate, or DHA. […] Various established parameters of antidepressant activity including reduced immobility time, increased swimming, and increased climbing behavior are quantitated to assess the antidepressant activity.
Sprague-Dawley rats are fed diet supplemented with Li-DHA-lysoPC, lithium carbonate, or DHA. […] Various established parameters of antidepressant activity including reduced immobility time, increased swimming, and increased climbing behavior are quantitated to assess the antidepressant activity.
Sprague-Dawley rats are fed diet supplemented with Li-EPA, lithium carbonate, or EPA. […] Various established parameters of antidepressant activity including reduced immobility time, increased swimming, and increased climbing behavior are quantitated to assess the antidepressant activity.

[3] = tested on: Patients presenting symptoms of depression; test: Hamilton Depression Rating scale and Beck Depression Inventory in depression; type: in vivo, human; settings: 113 mg elemental Li 3 to 4 times a day for two weeks, with standard of care, compared with lithium carbonate or the fatty acid alone
Description: Patients presenting symptoms of depression, in addition to being provided standard of care for depression, are prescribed Mg-DHA or Mg Citrate capsules formulated to provide 150 mg of elemental magnesium, or DHA capsules for two weeks when recovery from depression is assessed.
Patients presenting symptoms of depression, in addition to being provided standard of care for depression, are prescribed Mg-DHA-LysoPC or Mg Citrate capsules formulated to provide 150 mg of elemental magnesium, or DHA-LysoPC capsules for two weeks when recovery from depression is assessed.
Patients presenting symptoms of depression, in addition to being provided standard of care for depression, are prescribed Mg-EPA or Mg Citrate capsules formulated to provide 150 mg of elemental magnesium, or EPA capsules for two weeks when recovery from depression is assessed.
Patients presenting symptoms of depression, in addition to being provided standard of care for depression, are prescribed Zn-DHA or zinc gluconate capsules formulated to provide a daily dosage of 30 mg of elemental zinc, or DHA capsules for two weeks when recovery from depression is assessed.
Patients presenting symptoms of depression, in addition to being provided standard of care for depression, are prescribed Zn-DHA-LysoPC or zinc gluconate capsules formulated to provide a daily dosage of 30 mg of elemental zinc, or DHA-LysoPC capsules for two weeks when recovery from depression is assessed.
Patients presenting symptoms of depression, in addition to being provided standard of care for depression, are prescribed Zn-EPA or zinc gluconate capsules that provide a daily dosage of 30 mg of elemental Zn, or EPA capsules for two weeks when recovery from depression is assessed.

[4] = tested on: C57BL/6J mice; test: d-amphetamine induced hyperlocomotion, supplemented diet; type: in vivo; settings: about 15.5 mg/Kg/day elemental lithium, 0.5 mg/Kg d-amphetamine on days 0, 7, 14, 21, compared with the fatty acid alone or lithium chloride
Description: C57BL/6J mice are fed diet supplemented with Li-DHA, lithium chloride, or DHA. On Li-DHA or lithium chloride supplemented diet, mice consume, on an average, about 15.5 mg/Kg/day of elemental lithium, on a feeding schedule so as to maintain 85% of its free-feeding weight. […] On 0, 7, 14, and 21 days of starting the supplement diet, mice are injected with 0.5 mg/Kg d-amphetamine and observed for hyperlocomotion using automated video recording device.
C57BL/6J mice are fed diet supplemented with Li-DHA-lysoPC, lithium chloride, or DHA-lysoPC. On Li-DHA-lysoPC or lithium chloride supplemented diet, mice consume, on an average, about 15.5 mg/Kg/day of elemental lithium, on a feeding schedule so as to maintain 85% of its free-feeding weight. […] On 0, 7, 14, and 21 days of starting the supplement diet, mice are injected with 0.5 mg/Kg d-amphetamine and observed for hyperlocomotion using automated video recording device.
C57BL/6J mice are fed diet supplemented with Li-EPA, lithium chloride, or EPA. On Li-EPA or lithium chloride supplemented diet, mice consume, on an average, about 15.5 mg/Kg/day of elemental lithium, on a feeding schedule so as to maintain 85% of its free-feeding weight. […] On 0, 7, 14, and 21 days of starting the supplement diet, mice are injected with 0.5 mg/Kg d-amphetamine and observed for hyperlocomotion using automated video recording device.

[5] = tested on: C57BL/6J mice; test: d-amphetamine induced hyperlocomotion, acute injection; type: in vivo; settings: injected 15.5 mg/Kg elemental lithium fifteen minutes after d-amphetamine (0.5 mg/Kg), observed 120 minutes, compared with the fatty acid alone or lithium chloride
Description: C57BL/6J mice are injected with d-amphetamine (0.5 mg/Kg) and increased locomotion is measured. Fifteen minutes later, Li-DHA, or lithium chloride dose is injected to deliver 15.5 mg/Kg elemental lithium. […] Subsequently, the mice are observed for hyperlocomotion for the next 120 minutes using automated video recording device.
C57BL/6J mice are injected with d-amphetamine (0.5 mg/Kg) and increased locomotion is measured. Fifteen minutes later, Li-DHA-lysoPC, or lithium chloride dose is injected to deliver 15.5 mg/Kg elemental lithium. […] Subsequently, the mice are observed for hyperlocomotion for the next 120 minutes using automated video recording device.
C57BL/6J mice are injected with d-amphetamine (0.5 mg/Kg) and increased locomotion is measured. Fifteen minutes later, Li-EPA, or lithium chloride dose is injected to deliver 15.5 mg/Kg elemental lithium. […] Subsequently, the mice are observed for hyperlocomotion for the next 120 minutes using automated video recording device.

[6] = tested on: Patients presenting symptoms of bipolar disorder; test: Hamilton Depression Rating scale, Beck Depression Inventory and Young Mania Rating Scale in bipolar disorder; type: in vivo, human; settings: 113 mg elemental Li 3 to 4 times a day for two weeks, with standard of care, compared with lithium carbonate or the fatty acid alone
[7] = intravenous infusion for 5 days; cited from earlier work

SMILES | CSF levels of lithium [1] | immobility time [2] | swimming and climbing behavior [2] | Hamilton Depression Rating scale and Beck Depression Inventory scores [3] | induced hyperlocomotion [4] | induced hyperlocomotion [5] | Hamilton Depression Rating scale, Beck Depression Inventory and Young Mania Rating Scale scores [6] | Mg levels in the brain [7] | increase of blood levels of magnesium [7] [fold]
CC/C=C\C/C=C\C/C=C\C/C=C\C/C=C\C/C=C\CCC(=O)[O-].[Li+] [Li-DHA] | higher | reduction | significant increase | statistically significant improvement | lower levels | lower levels | statistically significant improvement | – | –
CC/C=C\C/C=C\C/C=C\C/C=C\C/C=C\CCCC(=O)[O-].[Li+] [Li-EPA] | higher | reduction | significant increase | statistically significant improvement | lower levels | lower levels | statistically significant improvement | – | –
O=S(=O)([O-])[O-].[Mg+2] [magnesium sulfate] | – | – | – | – | – | – | – | failed to increase | 3
